Assay results from US10047071B1, “Dihydropyrimidinone derivatives” (KING SAUD UNIVERSITY, priority 2018, dated 2018).

With `O=C1NC=C(C(=O)c2ccc(-n3ccnc3)cc2)C(c2cccc(O)c2)N1` (centres unmarked) [Compound 9, 4-(3-hydroxyphenyl)-5-[4-(1H-imidazol-1-yl)benzoyl]-3,4-dihydropyrimidin-2(1H)-one] as the compound, how does the melting point read?
Its melting point is 190 to 192 °C.

With `COc1cc(C2NC(=O)NC=C2C(=O)c2ccc(-n3ccnc3)cc2)cc(OC)c1OC` (centres unmarked) [Compound 13, 5-[4-(1H-imidazol-1-yl)benzoyl]-4-(3,4,5-trimethoxyphenyl)-3,4-dihydropyrimidin-2(1H)-one] as the compound, how does the melting point read?
Its melting point is 128 to 130 °C.

With `O=C1NC=C(C(=O)c2ccc(-n3ccnc3)cc2)C(c2cccc([N+](=O)[O-])c2)N1` (centres unmarked) [Compound 4, 5-[4-(1H-imidazol-1-yl)benzoyl]-4-(3-nitrophenyl)-3,4-dihydropyrimidin-2(1H)-one] as the compound, how does the melting point read?
The melting point was 160 to 162 °C.

With `O=C1NC=C(C(=O)c2ccc(-n3ccnc3)cc2)C(c2ccccc2)N1` (centres unmarked) [Compound 1, 5-[4-(1H-imidazol-1-yl)benzoyl]-4-phenyl-3,4-dihydropyrimidin-2(1H)-one] as the compound, how does the melting point read?
The melting point was 130 to 132 °C.

For `COc1cc(OC)c(C2NC(=O)NC=C2C(=O)c2ccc(-n3ccnc3)cc2)cc1OC` (centres unmarked) [Compound 11, 5-[4-(1H-imidazol-1-yl)benzoyl]-4-(2,4,5-trimethoxyphenyl)-3,4-dihydropyrimidin-2(1H)-one], which melting point is on record?
The melting point was 135 to 137 °C.

With `O=C1NC=C(C(=O)c2ccc(-n3ccnc3)cc2)C(c2ccc(Cl)cc2)N1` (centres unmarked) [Compound 5, 4-(4-chlorophenyl)-5-[4-(1H-imidazol-1-yl)benzoyl]-3,4-dihydropyrimidin-2(1H)-one] as the compound, how does the melting point read?
Its melting point is 180 to 182 °C.

Which melting point does the source give for `COc1cc(OC)c(C2NC(=O)NC=C2C(=O)c2ccc(-n3ccnc3)cc2)c(OC)c1` (centres unmarked) [Compound 14, 5-[4-(1H-imidazol-1-yl)benzoyl]-4-(2,4,6-trimethoxyphenyl)-3,4-dihydropyrimidin-2(1H)-one] here?
The melting point was 130 to 132 °C.

With `O=C1NC=C(C(=O)c2ccc(-n3ccnc3)cc2)C(c2ccc(Cl)cc2Cl)N1` (centres unmarked) [Compound 6, 4-(2,4-dichlorophenyl)-5-[4-(1H-imidazol-1-yl)benzoyl]-3,4-dihydropyrimidin-2(1H)-one] as the compound, how does the melting point read?
The melting point was 138 to 140 °C.

With `COc1ccccc1C1NC(=O)NC=C1C(=O)c1ccc(-n2ccnc2)cc1` (centres unmarked) [Compound 7, 5-[4-(1H-imidazol-1-yl)benzoyl]-4-(2-methoxyphenyl)-3,4-dihydropyrimidin-2(1H)-one] as the compound, how does the melting point read?
The melting point was 140 to 142 °C.

For `COc1cccc(C2NC(=O)NC=C2C(=O)c2ccc(-n3ccnc3)cc2)c1` (centres unmarked) [Compound 10, 5-[4-(1H-imidazol-1-yl)benzoyl]-4-(3-methoxyphenyl)-3,4-dihydropyrimidin-2(1H)-one], which melting point is on record?
The melting point was 125 to 127 °C.

For `COc1ccc(C2NC(=O)NC=C2C(=O)c2ccc(-n3ccnc3)cc2)c(OC)c1OC` (centres unmarked) [Compound 12, 5-[4-(1H-imidazol-1-yl)benzoyl]-4-(2,3,4-trimethoxyphenyl)-3,4-dihydropyrimidin-2(1H)-one], which melting point is on record?
The melting point was 138 to 140 °C.

With `COc1ccc(C2NC(=O)NC=C2C(=O)c2ccc(-n3ccnc3)cc2)cc1OC` (centres unmarked) [Compound 15, 5-[4-(1H-imidazol-1-yl)benzoyl]-4-(3,4-dimethoxyphenyl)-3,4-dihydropyrimidin-2(1H)-one] as the compound, how does the melting point read?
The melting point was 136 to 138 °C.

For `O=C1NC=C(C(=O)c2ccc(-n3ccnc3)cc2)C(c2ccccc2[N+](=O)[O-])N1` (centres unmarked) [Compound 2, 5-[4-(1H-imidazol-1-yl)benzoyl]-4-(2-nitrophenyl)-3,4-dihydropyrimidin-2(1H)-one], which melting point is on record?
Its melting point is 155 to 157 °C.

With `O=C1NC=C(C(=O)c2ccc(-n3ccnc3)cc2)C(c2ccc([N+](=O)[O-])cc2)N1` (centres unmarked) [Compound 3, 5-[4-(1H-imidazol-1-yl)benzoyl]-4-(4-nitrophenyl)-3,4-dihydropyrimidin-2(1H)-one] as the compound, how does the melting point read?
Its melting point is 158 to 160 °C.
